# Reference: US9376454B2, “Beta-lactamase inhibitors” (priority 2013, dated 2016)
# Where two headings read alike, the source gives them in different places.
# Key:
# [1] = target: T1, SHV-5 β-lactamase (Klebsiella pneumoniae, UniProt P0A3M1); assay: β-Lactamase inhibition enzyme assay, SHV-5; type: biochemical
# T1 construct: made in house; host or cells: E. coli BL21(DE3)
# Outline: (§1)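 Native untagged β-lactamases from E. coli BL21(DE3) were purified and preincubated with inhibitor 15 min at 37° C. Hydrolysis was then followed as initial rates: 100 μM nitrocefin at 486 nm for p99 AmpC and OXA-1, imipenem at 300 nm for KPC-2, cefotaxime at 260 nm for SHV-5. IC50 = 50% reduction versus no-inhibitor controls.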
# [2] = tested on: S. aureus MSSA-7 producing penicillinase PC-1; assay: Broth microdilution MIC assay, S. aureus PC-1; type: cell-based
# [3] = target: T2, VIM-2 metallo β-lactamase (Pseudomonas aeruginosa, UniProt Q9K2N0); assay: β-Lactamase inhibition enzyme assay, VIM-2; type: biochemical; conditions: Nitrocefin 100 μM as substrate, 486 nm; 15 min at 37° C. with enzyme, PBS pH 7.4; read-out: Class B VIM-2 IC50
# T2 construct: made in house; host or cells: E. coli BL21(DE3)
# Outline: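 Purified untagged VIM-2, expressed in E. coli BL21(DE3), preincubated with inhibitor 15 min at 37 °C. Nitrocefin added at 100 μM final, and absorbance at 486 nm monitored for 10 min. IC50 taken as inhibitor concentration halving initial hydrolysis rate relative to uninhibited controls.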
# [4] = target: T3, OXA-1 β-lactamase (Escherichia coli, UniProt P13661); assay: β-Lactamase inhibition enzyme assay, OXA-1; type: biochemical
# T3 construct: made in house; host or cells: E. coli BL21(DE3)
# Outline: as §1
# [5] = target: T4, KPC-2 β-lactamase (Klebsiella pneumoniae, UniProt Q9F663); assay: β-Lactamase inhibition enzyme assay, KPC-2; type: biochemical
# T4 construct: made in house; host or cells: E. coli BL21(DE3)
# Outline: as §1
# [6] = target: T5, p99 AmpC β-lactamase (Enterobacter cloacae, UniProt P05364); assay: β-Lactamase inhibition enzyme assay, p99 AmpC; type: biochemical
# T5 construct: made in house; host or cells: E. coli BL21(DE3)
# Outline: as §1
# [7] = tested on: E. cloacae 144200 expressing p99 AmpC; assay: Broth microdilution MIC assay, E. cloacae P99; type: cell-based; conditions: fixed ceftazidime 4 μg/mL; CAMHB, 16-20 hours at 37° C.
# [8] = tested on: E. coli ESBL4 expressing CTX-M-15; assay: Broth microdilution MIC assay, E. coli CTX-M-15; type: cell-based; conditions: E. coli expressing Class A ESBL CTX-M-15
# [9] = tested on: K. pneumoniae A-1797 expressing KPC-2 and VIM-4; assay: Broth microdilution MIC assay, K. pneumoniae KPC-2 and VIM-4; type: cell-based; conditions: K. pneumoniae expressing KPC-2 and VIM-4
# [10] = tested on: P. aeruginosa Ps296 expressing VIM-2; assay: Broth microdilution MIC assay, P. aeruginosa VIM-2; type: cell-based; conditions: P. aeruginosa expressing carbapenemase VIM-2
# [11] = Nitrocefin 100 μM as substrate, 486 nm, 15 min at 37° C. with enzyme, PBS pH 7.4, read-out: Class D OXA-1 IC50
# [12] = imipenem as substrate, 300 nm, 15 min at 37° C. with enzyme, PBS pH 7.4, read-out: Class A KPC-2 IC50
# T5 sequence (P05364 21-381): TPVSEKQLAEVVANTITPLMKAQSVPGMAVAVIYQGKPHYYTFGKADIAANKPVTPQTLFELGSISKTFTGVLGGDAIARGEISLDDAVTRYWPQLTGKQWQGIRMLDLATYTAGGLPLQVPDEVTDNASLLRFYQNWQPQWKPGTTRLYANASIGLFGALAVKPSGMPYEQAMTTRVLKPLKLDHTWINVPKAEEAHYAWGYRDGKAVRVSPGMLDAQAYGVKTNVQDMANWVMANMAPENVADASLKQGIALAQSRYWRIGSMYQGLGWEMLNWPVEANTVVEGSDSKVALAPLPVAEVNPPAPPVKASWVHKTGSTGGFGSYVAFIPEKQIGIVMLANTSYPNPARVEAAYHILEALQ
# T4 sequence (Q9F663 25-293, looked up): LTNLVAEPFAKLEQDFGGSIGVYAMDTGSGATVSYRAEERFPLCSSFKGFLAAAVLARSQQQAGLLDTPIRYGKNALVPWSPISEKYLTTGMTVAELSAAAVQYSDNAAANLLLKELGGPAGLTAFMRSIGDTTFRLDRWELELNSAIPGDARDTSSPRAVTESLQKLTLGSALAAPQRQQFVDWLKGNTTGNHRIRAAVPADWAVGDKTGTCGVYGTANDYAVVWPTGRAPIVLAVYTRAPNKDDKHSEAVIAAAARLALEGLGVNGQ
# T1 sequence (P0A3M1 22-286): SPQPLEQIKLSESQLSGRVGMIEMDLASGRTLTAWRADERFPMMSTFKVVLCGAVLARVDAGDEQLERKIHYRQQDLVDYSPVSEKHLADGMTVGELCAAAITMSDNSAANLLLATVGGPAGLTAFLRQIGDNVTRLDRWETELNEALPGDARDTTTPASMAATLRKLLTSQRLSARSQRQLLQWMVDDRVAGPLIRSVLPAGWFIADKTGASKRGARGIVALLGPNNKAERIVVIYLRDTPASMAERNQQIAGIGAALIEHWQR
# T3 sequence (P13661 26-276): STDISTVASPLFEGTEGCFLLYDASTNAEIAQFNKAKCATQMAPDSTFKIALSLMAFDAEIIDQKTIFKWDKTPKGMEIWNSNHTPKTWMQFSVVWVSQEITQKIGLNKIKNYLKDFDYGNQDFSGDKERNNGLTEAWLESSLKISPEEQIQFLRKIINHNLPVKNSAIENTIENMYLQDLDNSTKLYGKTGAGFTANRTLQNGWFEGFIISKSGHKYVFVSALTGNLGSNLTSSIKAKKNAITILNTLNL
SMILES,IC50 [1] [nM],IC50 [3] [nM],IC50 [6] [nM],"IC50 [4, 11] [nM]","IC50 [5, 12] [nM]",other results
"O=C(O)c1cccc2c1OB(O)[C@@H](NC(=O)C1(c3ccccc3)CCNCC1)C2 [Example 3, (R)-2-hydroxy-3-(4-phenylpiperidine-4-carboxamido)-3,4-dihydro-2H-benzo[e][1,2]oxaborinine-8-carboxylic acid]",10000 to 100000,1000 to 10000,< 100,,,"MIC of Exemplary Compounds in presence of fixed β-lactams: Fixed Pip, S. aureus MSSA-7 PC-1 ([2]; fixed piperacillin 4 μg/mL, CAMHB, 16-20 hours at 37° C.): A (A represents an MIC of the fixed β-lactam antibiotic in the presence of >32 μg/mL of a β-lactamase inhibitor of exemplary compounds); IC50 [4]: 100 to 1000 nM; IC50 [5]: < 100 nM"
"CCN1CCN(C(=O)N[C@@H](C(=O)N[C@@H]2C(=O)N3[C@@H]2SC(C)(C)[C@@H]3C(=O)O)c2ccccc2)C(=O)C1=O [Piperacillin, reference compound]",,,,,,"MIC alone of partner antibiotic ([2]; antibiotic alone, S. aureus producing penicillinase PC-1): 64 µg/mL"
"NCc1cc(CN)cc(C(=O)N[C@H]2Cc3cccc(C(=O)O)c3OB2O)c1 [Example 44, (R)-3-(3,5-bis(aminomethyl)benzamido)-2-hydroxy-3,4-dihydro-2H-benzo[e][1,2]oxaborinine-8-carboxylic acid]",1000 to 10000,1000 to 10000,100 to 1000,1000 to 10000,1000 to 10000,"MIC of Exemplary Compounds in presence of fixed β-lactams: Fixed CAZ, E. cl. 144200 p99 AmpC [7]: C (C represents the MIC in the presence of ≦4 μg/mL of a β-lactamase inhibitor of exemplary compounds)"
"O=C(N[C@H]1Cc2cccc(C(=O)O)c2OB1O)c1cnco1 [Example 52, (R)-2-Hydroxy-3-[(oxazole-5-carbonyl)-amino]-3,4-dihydro-2H-benzo[e][1,2]oxaborinine-8-carboxylic acid]",< 100,100 to 1000,< 100,< 100,< 100,
CC(C)(O/N=C(\C(=O)N[C@@H]1C(=O)N2C(C(=O)[O-])=C(C[n+]3ccccc3)CS[C@H]12)c1csc(N)n1)C(=O)O [Ceftazidime],,,,,,MIC alone of partner antibiotic [8]: > 128 µg/mL
"CN(C)Cc1ccc(C(=O)N[C@H]2Cc3cccc(C(=O)O)c3OB2O)cc1NC(=O)[C@@H](N)CN [Example 21, (R)-3-(3-((S)-2,3-diaminopropanamido)-4-((dimethylamino)methyl)benzamido)-2-hydroxy-3,4-dihydro-2H-benzo[e][1,2]oxaborinine-8-carboxylic acid]",100 to 1000,< 100,< 100,< 100,< 100,
"O=C(N[C@H]1Cc2cccc(C(=O)O)c2OB1O)c1ccc2c(c1)CCNC2 [Example 5, (R)-3-(2-borono-2-(1,2,3,4-tetrahydroisoquinoline-6-carboxamido)ethyl)-2-hydroxybenzoic acid]",< 100,100 to 1000,< 100,< 100,< 100,
"NCCOc1ccc(CC(=O)N[C@H]2Cc3cccc(C(=O)O)c3OB2O)cc1OCCN [Example 58, (R)-3-(2-(3,4-bis(2-aminoethoxy)phenyl)acetamido)-2-hydroxy-3,4-dihydro-2H-benzo[e][1,2]oxaborinine-8-carboxylic acid]",< 100,100 to 1000,< 100,< 100,< 100,
"O=C(N[C@H]1Cc2cccc(C(=O)O)c2OB1O)c1cnc2[nH]ccc2c1 [Example 35, (R)-2-Hydroxy-3-[(1H-pyrrolo[2,3-b]pyridine-5-carbonyl)-amino]-3,4-dihydro-2H-benzo[e][1,2]oxaborinine-8-carboxylic acid]",< 100,100 to 1000,< 100,< 100,< 100,
"NCCn1ccc2ccc(C(=O)N[C@H]3Cc4cccc(C(=O)O)c4OB3O)cc21 [Example 41, (R)-3-{[1-(2-Amino-ethyl)-1H-indole-6-carbonyl]-amino}-2-hydroxy-3,4-dihydro-2H-benzo[e][1,2]oxaborinine-8-carboxylic acid]",< 100,< 100,< 100,< 100,< 100,
C[C@@H](O)[C@H]1C(=O)N2C(C(=O)O)=C(S[C@@H]3CN[C@H](C(=O)N(C)C)C3)[C@H](C)[C@H]12 [Meropenem],,,,,,MIC alone of partner antibiotic [9]: 64 µg/mL; MIC alone of partner antibiotic [10]: 16 µg/mL
